Laboratory results as given in article PMC10148158, “Mechanism and linkage specificities of the dual retaining β-Kdo glycosyltransferase modules of KpsC from bacterial capsule biosynthesis” (The Journal of Biological Chemistry, 2023).

Target: T1, KpsC-NEc (E. coli KpsC^2-323) (Escherichia coli, UniProt A0A0H2Z2W8)
T1 construct: N-terminal GT module, residues 2-323, His6-tag kept, expressed in E. coli BL21(DE3)
Assay: LC-MS of intact protein
Assay type: biochemical
Conditions: covalent; Kdo on Asp160; CMP-Kdo made in situ by KdsB; no acceptor

T1 sequence (A0A0H2Z2W8 entry or part of it): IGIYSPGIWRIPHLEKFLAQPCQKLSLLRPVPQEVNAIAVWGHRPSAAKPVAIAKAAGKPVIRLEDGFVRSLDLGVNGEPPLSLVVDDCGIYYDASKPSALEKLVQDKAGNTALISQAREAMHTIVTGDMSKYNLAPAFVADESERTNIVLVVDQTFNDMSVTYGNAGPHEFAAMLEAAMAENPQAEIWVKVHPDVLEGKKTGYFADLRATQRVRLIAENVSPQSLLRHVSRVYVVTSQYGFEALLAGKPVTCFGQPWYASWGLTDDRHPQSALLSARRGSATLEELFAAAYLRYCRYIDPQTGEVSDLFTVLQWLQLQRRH

Nc1ccn([C@@H]2O[C@H](COP(=O)(O)O[C@@]3(C(=O)O)C[C@@H](O)[C@@H](O)[C@@H]([C@H](O)CO)O3)[C@@H](O)[C@H]2O)c(=O)n1 [CMP-Kdo]
Kdo adduct mass increase: The native KpsC-NEc enzyme therefore appears capable of forming covalent Kdo adducts in vitro.
